Assay results as given in US20260356830A1, “COMPOUNDS FOR MODULATING RET PROTEIN” (Bristol-Myers Squibb Company, priority 2022, published 2026).
Each block holds one compound with its values, some of them ahead of it.

Molecular target: T1, CCDC6-RET (Homo sapiens, UniProt P07949+Q16204+Q96SW2)
T1 construct: CCDC6 (natural N-terminal fusion partner, UniProt Q16204); endogenous in cells; host or cells: TPC-1 (parental, papillary thyroid carcinoma)
Assay: Cellular RET degradation, AlphaLISA, TPC-1 cell line
Format: cell-based
Settings: for Dmax: TPC1, human, 24 h, read-out: Cell Density TPC-1/CCDC6-RET Ymax %; for DC50: read-out: Cell Density TPC-1/CCDC6-RET DC50, half-maximal degradation concentration, TPC-1 (CCDC6-RET), 24 hrs
Experimental: Cellular RET degradation compound potency was determined using the bead-based luminescent amplification assay-AlphaLISA Surefire Ultra Detection Kit (Perkin-Elmer). The CCDC6-RET fusion expressing papillary thyroid carcinoma (TPC-1) cell line was selected for screening of potential degraders: Parental (TPC-1/CCDC6-RET). Cells were plated in 384 well culture plates (Greiner Bio-One) at 10,000 cells/well in 50 ul/well DMEM (Fisher Scientific) with 2% FBS serum (Gibco). […] Low normalization wells were media only and high normalization wells were cells treated with DMSO only. Treated cell plates were placed in an incubator at 37 °C and 5% CO2 for 24 hrs. At 24 hrs, cell media was removed by a FELIX automated liquid hander (Analytik Jena) and 25 ul of cell lysis buffer (provided in AlphaLisa kit) was added to each well. […] cell lysate were transferred into a 384-well microplate (Perkin Elmer) before addition of 2.5 ul AlphaLISA Acceptor Bead mix. The plates were sealed and kept at room temperature for 1 hr before addition of donor bead mixture. Donor bead addition was performed in the dark and incubated for >1 hr before AlphaLISA luminescence was measured on an Envision plate reader with an Alphascreen aperture at RT (excitation 680 nm, emission 615 nm). RET protein abundance (and therefore degradation) directly corresponds to luminescence intensity.
Intensities were normalized relative to the average values from 16 wells containing media alone (blank-low) and 16 wells containing cells +DMSO (high). % Degradation for each well was determined using the standard equation, where
DC50 (IC50) values for each compound tested are calculated by analyzing plots of % degradation versus compound concentration, and fitting to the standard 4-parameter logistic curve where,
DC50 values are calculated according to the relationship,
Compound replicates were performed in independent assays. Maximum degradation (YMax) was defined as the maximal % degradation value from the 4-parameter logistic equation, as previously described.

T1 sequence (Q16204+P07949 fused): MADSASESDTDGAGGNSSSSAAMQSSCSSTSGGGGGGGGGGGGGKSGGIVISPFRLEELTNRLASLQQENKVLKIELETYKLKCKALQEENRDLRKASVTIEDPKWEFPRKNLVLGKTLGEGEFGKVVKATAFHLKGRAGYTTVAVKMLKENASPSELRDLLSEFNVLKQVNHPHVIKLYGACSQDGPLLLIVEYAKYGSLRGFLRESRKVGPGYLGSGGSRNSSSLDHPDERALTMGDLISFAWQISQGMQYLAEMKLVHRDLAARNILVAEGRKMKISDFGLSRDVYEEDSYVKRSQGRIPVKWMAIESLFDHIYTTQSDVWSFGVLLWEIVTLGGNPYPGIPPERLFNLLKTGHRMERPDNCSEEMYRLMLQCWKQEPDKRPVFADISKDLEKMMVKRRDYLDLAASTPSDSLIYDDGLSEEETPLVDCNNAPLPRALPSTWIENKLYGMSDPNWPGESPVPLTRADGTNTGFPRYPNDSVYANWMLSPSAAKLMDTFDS
T1 sequence (Q96SW2 whole entry, the tested form may be a part): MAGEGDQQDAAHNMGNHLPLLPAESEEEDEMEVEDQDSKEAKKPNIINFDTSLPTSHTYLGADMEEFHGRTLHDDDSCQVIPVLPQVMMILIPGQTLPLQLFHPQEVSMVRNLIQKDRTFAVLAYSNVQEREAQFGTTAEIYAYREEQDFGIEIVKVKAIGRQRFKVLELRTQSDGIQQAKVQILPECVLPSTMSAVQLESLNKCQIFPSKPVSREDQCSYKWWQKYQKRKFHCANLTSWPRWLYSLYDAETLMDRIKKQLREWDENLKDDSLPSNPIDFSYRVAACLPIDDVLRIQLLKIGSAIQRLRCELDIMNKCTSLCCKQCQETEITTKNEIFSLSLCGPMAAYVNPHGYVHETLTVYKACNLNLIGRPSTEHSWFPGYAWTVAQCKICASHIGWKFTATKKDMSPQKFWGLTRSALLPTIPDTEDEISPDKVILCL
T1 sequence (Q16531 whole entry partner, the tested form may be a part): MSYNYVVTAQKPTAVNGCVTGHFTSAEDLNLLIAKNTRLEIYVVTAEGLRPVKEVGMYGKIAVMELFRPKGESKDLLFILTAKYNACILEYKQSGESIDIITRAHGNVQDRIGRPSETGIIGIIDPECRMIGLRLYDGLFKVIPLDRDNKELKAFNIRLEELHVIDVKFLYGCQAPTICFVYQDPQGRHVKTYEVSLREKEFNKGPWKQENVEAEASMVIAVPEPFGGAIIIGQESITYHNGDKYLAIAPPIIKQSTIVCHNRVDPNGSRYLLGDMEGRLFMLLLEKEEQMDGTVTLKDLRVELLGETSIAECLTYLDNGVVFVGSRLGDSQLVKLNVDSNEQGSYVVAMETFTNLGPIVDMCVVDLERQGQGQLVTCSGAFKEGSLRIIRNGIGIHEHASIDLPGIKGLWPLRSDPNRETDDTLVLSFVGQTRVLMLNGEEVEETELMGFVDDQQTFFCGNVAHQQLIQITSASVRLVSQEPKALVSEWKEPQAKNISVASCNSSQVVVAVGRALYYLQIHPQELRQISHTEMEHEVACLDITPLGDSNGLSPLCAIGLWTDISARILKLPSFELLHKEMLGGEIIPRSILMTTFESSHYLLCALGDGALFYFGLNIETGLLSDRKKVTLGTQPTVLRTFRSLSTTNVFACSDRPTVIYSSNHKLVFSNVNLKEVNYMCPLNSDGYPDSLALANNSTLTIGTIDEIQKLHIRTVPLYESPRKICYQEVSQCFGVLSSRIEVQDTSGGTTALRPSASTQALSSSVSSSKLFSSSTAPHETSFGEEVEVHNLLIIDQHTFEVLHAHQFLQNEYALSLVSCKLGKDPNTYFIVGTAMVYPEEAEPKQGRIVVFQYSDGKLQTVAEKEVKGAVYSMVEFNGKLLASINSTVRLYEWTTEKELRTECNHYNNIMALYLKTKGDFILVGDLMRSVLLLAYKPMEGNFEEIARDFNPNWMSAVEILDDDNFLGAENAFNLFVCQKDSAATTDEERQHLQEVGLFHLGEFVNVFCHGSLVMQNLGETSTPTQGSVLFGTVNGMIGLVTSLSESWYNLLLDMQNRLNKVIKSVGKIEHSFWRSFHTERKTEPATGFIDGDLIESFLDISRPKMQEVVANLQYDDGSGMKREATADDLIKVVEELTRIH

Structure (SMILES): CCOc1cc(-c2ccc(N3CCC(CN4CCN(C(=O)CCCN5CCN(c6ccc7c(c6)CN(C6CCC(=O)NC6=O)C7=O)CC5)CC4)(NC(=O)c4cc(F)ccc4F)CC3)nc2)c2c(C#N)cnn2c1 (stereo not drawn) [Example 14, N-(1-(5-(3-cyano-6-ethoxypyrazolo[1,5-a]pyridin-4-yl)pyridin-2-yl)-4-((4-(4-(4-(2-(2,6-dioxopiperidin-3-yl)-1-oxoisoindolin-5-yl)piperazin-1-yl)butanoyl)piperazin-1-yl)methyl)piperidin-4-yl)-2,5-difluorobenzamide]
Dmax: 60 to 90%
DC50: 2 to 10 nM

Structure (SMILES): CCOc1cc(-c2ccc(N3CCC(CN4CCN(C(=O)CCCCCCN5CCC(c6ccc7c(c6)C(=O)N(C6CCC(=O)NC6=O)C7)CC5)CC4)(NC(=O)c4cc(F)ccc4F)CC3)nc2)c2c(C#N)cnn2c1 (stereo not drawn) [Example 19, N-[1-(5-{3-cyano-6-ethoxypyrazolo[1,5-a]pyridin-4-yl}pyridin-2-yl)-4-{[4-(7-{4-[2-(2,6-dioxopiperidin-3-yl)-3-oxo-2,3-dihydro-1H-isoindol-5-yl]piperidin-1-yl}heptanoyl)piperazin-1-yl]methyl}piperidin-4-yl]-2,5-difluorobenzamide]
Dmax: > 90%
DC50: 2 to 10 nM

Structure (SMILES): CCOc1cc(-c2ccc(N3CCC(CN4CCN(C(=O)CCCCCCNc5cccc(NC6CCC(=O)NC6=O)c5)CC4)(NC(=O)c4cc(F)ccc4F)CC3)nc2)c2c(C#N)cnn2c1 (stereo not drawn) [Example 22, N-[1-(5-{3-cyano-6-ethoxypyrazolo[1,5-a]pyridin-4-yl}pyridin-2-yl)-4-({4-[7-({3-[(2,6-dioxopiperidin-3-yl)amino]phenyl}amino)heptanoyl]piperazin-1-yl}methyl)piperidin-4-yl]-2,5-difluorobenzamide]
Dmax: 60 to 90%
DC50: 10 to 100 nM

Structure (SMILES): CCOc1cc(-c2ccc(N3CCC(CN4CCN(C(=O)CCCCCCCCNc5cccc(NC6CCC(=O)NC6=O)c5)CC4)(NC(=O)c4cc(F)ccc4F)CC3)nc2)c2c(C#N)cnn2c1 (stereo not drawn) [Example 23, N-[1-(5-{3-cyano-6-ethoxypyrazolo[1,5-a]pyridin-4-yl}pyridin-2-yl)-4-({4-[9-({3-[(2,6-dioxopiperidin-3-yl)amino]phenyl}amino)nonanoyl]piperazin-1-yl}methyl)piperidin-4-yl]-2,5-difluorobenzamide]
Dmax: > 90%
DC50: 10 to 100 nM

Structure (SMILES): CCOc1cc(-c2ccc(N3CCC(CN4CCN(C(=O)CCCCCCCCNc5ccc6c(N7CCC(=O)NC7=O)nn(C)c6c5)CC4)(NC(=O)c4cc(F)ccc4F)CC3)nc2)c2c(C#N)cnn2c1 [Example 24, N-[1-(5-{3-cyano-6-ethoxypyrazolo[1,5-a]pyridin-4-yl}pyridin-2-yl)-4-{[4-(9-{[3-(2,4-dioxo-1,3-diazinan-1-yl)-1-methyl-1H-indazol-6-yl]amino}nonanoyl)piperazin-1-yl]methyl}piperidin-4-yl]-2,5-difluorobenzamide]
Dmax: 60 to 90%
DC50: 10 to 100 nM

Structure (SMILES): CCOc1cc(-c2ccc(N3CCC(CN4CCN(C(=O)CCCCCCCCNc5ccc6c(C7CCC(=O)NC7=O)nn(C)c6c5)CC4)(NC(=O)c4cc(F)ccc4F)CC3)nc2)c2c(C#N)cnn2c1 (stereo not drawn) [Example 25, N-[1-(5-{3-cyano-6-ethoxypyrazolo[1,5-a]pyridin-4-yl}pyridin-2-yl)-4-{[4-(9-{[3-(2,6-dioxopiperidin-3-yl)-1-methyl-1H-indazol-6-yl]amino}nonanoyl)piperazin-1-yl]methyl}piperidin-4-yl]-2,5-difluorobenzamide]
Dmax: > 90%
DC50: 2 to 10 nM

Structure (SMILES): CCOc1cc(-c2ccc(N3CCC(CN4CCN(C(=O)CCCCNC(=O)COc5cccc6c5CN(C5CCC(=O)NC5=O)C6=O)CC4)(NC(=O)c4cc(F)ccc4F)CC3)nc2)c2c(C#N)cnn2c1 (stereo not drawn) [Example 26, N-[1-(5-{3-cyano-6-ethoxypyrazolo[1,5-a]pyridin-4-yl}pyridin-2-yl)-4-({4-[5-(2-{[2-(2,6-dioxopiperidin-3-yl)-1-oxo-2,3-dihydro-1H-isoindol-4-yl]oxy}acetamido)pentanoyl]piperazin-1-yl}methyl)piperidin-4-yl]-2,5-difluorobenzamide]
Dmax: > 90%
DC50: 2 to 10 nM

Structure (SMILES): CCOc1cc(-c2ccc(N3CCC(CN4CCN(C(=O)CCCCCCCCCCNC(=O)COc5cccc6c5CN(C5CCC(=O)NC5=O)C6=O)CC4)(NC(=O)c4cc(F)ccc4F)CC3)nc2)c2c(C#N)cnn2c1 (stereo not drawn) [Example 28, N-[1-(5-{3-cyano-6-ethoxypyrazolo[1,5-a]pyridin-4-yl}pyridin-2-yl)-4-({4-[11-(2-{[2-(2,6-dioxopiperidin-3-yl)-1-oxo-2,3-dihydro-1H-isoindol-4-yl]oxy}acetamido)undecanoyl]piperazin-1-yl}methyl)piperidin-4-yl]-2,5-difluorobenzamide]
Dmax: 60 to 90%
DC50: 10 to 100 nM

Structure (SMILES): CCOc1cc(-c2ccc(N3CCC(CN4CCN(C(=O)CCCCCCCCCCCCCCNC(=O)COc5cccc6c5CN(C5CCC(=O)NC5=O)C6=O)CC4)(NC(=O)c4cc(F)ccc4F)CC3)nc2)c2c(C#N)cnn2c1 (stereo not drawn) [Example 30, N-[1-(5-{3-cyano-6-ethoxypyrazolo[1,5-a]pyridin-4-yl}pyridin-2-yl)-4-({4-[15-(2-{[2-(2,6-dioxopiperidin-3-yl)-1-oxo-2,3-dihydro-1H-isoindol-4-yl]oxy}acetamido)pentadecanoyl]piperazin-1-yl}methyl)piperidin-4-yl]-2,5-difluorobenzamide]
Dmax: 60 to 90%
DC50: 100 to 2000 nM

More lines, now with the values ahead:

Dmax: > 90%
DC50: 2 to 10 nM
Structure (SMILES): CCOc1cc(-c2ccc(N3CCC(CN4CCN(C(=O)CCCCCCN5CCN(c6ccc7c(c6)C(=O)N(C6CCC(=O)NC6=O)C7)CC5)CC4)(NC(=O)c4cc(F)ccc4F)CC3)nc2)c2c(C#N)cnn2c1 (stereo not drawn) [Example 16, N-[1-(5-{3-cyano-6-ethoxypyrazolo[1,5-a]pyridin-4-yl}pyridin-2-yl)-4-{[4-(7-{4-[2-(2,6-dioxopiperidin-3-yl)-3-oxo-2,3-dihydro-1H-isoindol-5-yl]piperazin-1-yl}heptanoyl)piperazin-1-yl]methyl}piperidin-4-yl]-2,5-difluorobenzamide]

Dmax: > 90%
DC50: < 2 nM
Structure (SMILES): CCOc1cc(-c2ccc(N3CCC(CN4CCN(C(=O)CCCCN5CCC(c6ccc7c(c6)C(=O)N(C6CCC(=O)NC6=O)C7)CC5)CC4)(NC(=O)c4cc(F)ccc4F)CC3)nc2)c2c(C#N)cnn2c1 (stereo not drawn) [Example 18, N-[1-(5-{3-cyano-6-ethoxypyrazolo[1,5-a]pyridin-4-yl}pyridin-2-yl)-4-{[4-(5-{4-[2-(2,6-dioxopiperidin-3-yl)-3-oxo-2,3-dihydro-1H-isoindol-5-yl]piperidin-1-yl}pentanoyl)piperazin-1-yl]methyl}piperidin-4-yl]-2,5-difluorobenzamide]

Dmax: > 90%
DC50: 2 to 10 nM
Structure (SMILES): CCOc1cc(-c2ccc(N3CCC(CN4CCN(C(=O)CCCCCCNc5ccc(C6CCC(=O)NC6=O)cc5)CC4)(NC(=O)c4cc(F)ccc4F)CC3)nc2)c2c(C#N)cnn2c1 (stereo not drawn) [Example 20, N-[1-(5-{3-cyano-6-ethoxypyrazolo[1,5-a]pyridin-4-yl}pyridin-2-yl)-4-{[4-(7-{[4-(2,6-dioxopiperidin-3-yl)phenyl]amino}heptanoyl)piperazin-1-yl]methyl}piperidin-4-yl]-2,5-difluorobenzamide]

Dmax: 60 to 90%
DC50: 10 to 100 nM
Structure (SMILES): CCOc1cc(-c2ccc(N3CCC(CN4CCN(C(=O)CCCCCCCCNc5ccc(C6CCC(=O)NC6=O)cc5)CC4)(NC(=O)c4cc(F)ccc4F)CC3)nc2)c2c(C#N)cnn2c1 (stereo not drawn) [Example 21, N-[1-(5-{3-cyano-6-ethoxypyrazolo[1,5-a]pyridin-4-yl}pyridin-2-yl)-4-{[4-(9-{[4-(2,6-dioxopiperidin-3-yl)phenyl]amino}nonanoyl)piperazin-1-yl]methyl}piperidin-4-yl]-2,5-difluorobenzamide]

Dmax: 60 to 90%
DC50: 2 to 10 nM
Structure (SMILES): CCOc1cc(-c2ccc(N3CCC(CN4CCN(C(=O)CCCCCCNC(=O)COc5cccc6c5CN(C5CCC(=O)NC5=O)C6=O)CC4)(NC(=O)c4cc(F)ccc4F)CC3)nc2)c2c(C#N)cnn2c1 (stereo not drawn) [Example 27, N-[1-(5-{3-cyano-6-ethoxypyrazolo[1,5-a]pyridin-4-yl}pyridin-2-yl)-4-({4-[7-(2-{[2-(2,6-dioxopiperidin-3-yl)-1-oxo-2,3-dihydro-1H-isoindol-4-yl]oxy}acetamido)heptanoyl]piperazin-1-yl}methyl)piperidin-4-yl]-2,5-difluorobenzamide]

Dmax: > 90%
DC50: 10 to 100 nM
Structure (SMILES): CCOc1cc(-c2ccc(N3CCC(CN4CCN(C(=O)CCCCCCCCCCCCNC(=O)COc5cccc6c5CN(C5CCC(=O)NC5=O)C6=O)CC4)(NC(=O)c4cc(F)ccc4F)CC3)nc2)c2c(C#N)cnn2c1 (stereo not drawn) [Example 29, N-[1-(5-{3-cyano-6-ethoxypyrazolo[1,5-a]pyridin-4-yl}pyridin-2-yl)-4-({4-[13-(2-{[2-(2,6-dioxopiperidin-3-yl)-1-oxo-2,3-dihydro-1H-isoindol-4-yl]oxy}acetamido)tridecanoyl]piperazin-1-yl}methyl)piperidin-4-yl]-2,5-difluorobenzamide]
